According to patent US20100152200A1, “[…] USES THEREOF” (priority 2008, published 2010):
pIC50: −log10 of the molar value. Read-outs that look alike come from different tables or passages of the source.

What was measured:
WEEV replicon pWR-LUC = assay: organism not typed; format: cell-based
SINV = conditions: 12.5 µM
FMV [1] = format: cell-based, Fort Morgan virus (FMV) strain CM4-146
VEEV replicon = format: cell-based
EEEV replicon = format: cell-based
WEEV = format: cell-based, WEEV strain Cba87
BSR-T7/5 cells = assay: Toxicity studies (MTT or Alamar Blue cell viability) in the pWR-LUC:BSR-T7/5 system; conditions: for toxicity:activity (T:A) ratio (CC50/IC1050): pWR-LUC:BSR-T7/5 system
FMV [2] = test system: FMV
FMV [3] = format: cell-based, Fort Morgan virus (FMV) strain CM4-146; remark: listed apart in the source

O=C(NCc1ccco1)C1CCN(C(=O)c2cc3sccc3n2Cc2ccc(F)cc2)CC1 [Compound 32091]
pIC50 (WEEV replicon pWR-LUC; read-out: IC50): 5.03
cell viability of SINV-infected cells (SINV): 50%
reduction of accumulation of viral RNAs encoding nsP2 or E1 (FMV [1]): 80-90%
activity against VEEV replicon (in words) (VEEV replicon): broad activity
activity against EEEV replicon (in words) (EEEV replicon): broad activity
reduction of accumulation of viral RNAs encoding nsP2 or E1 (WEEV): 80-90%
cytotoxicity (in words) (BSR-T7/5 cells; FIG. 2 dose-response, BSR-T7/5 cells transfected with pWR-LUC): minimal cytotoxicity
toxicity:activity (T:A) ratio (CC50/IC1050) (BSR-T7/5 cells): greater than 20
concentration effectively suppressing FMV-induced CPE (lowest concentration tested) (FMV [2]): ≤ 3 µM
cell viability of FMV-infected cells (FMV [2]; 12.5 µM): 70%
suppression of infectious FMV production (FMV [3]): > 90%

COc1c(C)c2c(c(O)c1C/C=C(\C)CCC(=O)O)C(=O)OC2 [mycophenolic acid]
suppression of fLUC expression (WEEV replicon pWR-LUC): approximately 80%

NC(=O)c1ncn([C@@H]2O[C@H](CO)[C@@H](O)[C@H]2O)n1 [ribavirin]
suppression of fLUC expression (WEEV replicon pWR-LUC): approximately 80%
pIC50 (WEEV replicon pWR-LUC; BSR-T7/5): 4.80
toxicity:activity (T:A) ratio (CC50/IC1050) (BSR-T7/5 cells): 19
